Results: the NIST ThermoML archive (doi:10.1016/j.tca.2009.10.001)
± gives the expanded uncertainty stated by the source.

Experiments:
[1] = Liquid; for viscosity: Capillary tube (Ostwald / Ubbelohde) method; for speed of sound: Linear variable-path acoustic interferometer; for mass density: Pycnometric method
[2] = xn = mol fraction of the nth substance listed; details: 101 kPa, Liquid, x1 = 1; for viscosity: Capillary tube (Ostwald / Ubbelohde) method; for speed of sound: Linear variable-path acoustic interferometer; for mass density: Pycnometric method

Cc1ccccc1 [toluene]
[1], 101 kPa
Details | mass density [kg/m3] | speed of sound [m/s] | viscosity [mPa·s]
298.15 K | 860.9 ± 0.3 | 1299.8 ± 1.5 | 0.5635 ± 0.0056
303.15 K | 856 ± 0.3 | 1279.5 ± 1.5 | 0.5344 ± 0.0055
308.15 K | 851.6 ± 0.3 | 1260.7 ± 1.5 | 0.5091 ± 0.0054

CC#N [acetonitrile]
[1], 101.33 kPa
Details | mass density [kg/m3] | speed of sound [m/s] | viscosity [mPa·s]
298.15 K | 775.3 ± 0.3 | 1271.3 ± 1.8 | 0.3696 ± 0.0053
303.15 K | 769.9 ± 0.3 | 1251.9 ± 1.8 | 0.3554 ± 0.0052
308.15 K | 764.7 ± 0.4 | 1231.7 ± 1.7 | 0.3414 ± 0.0052

CCCC#N [butanenitrile]
[1], 101.33 kPa
Details | mass density [kg/m3] | speed of sound [m/s] | viscosity [mPa·s]
298.15 K | 784.7 ± 0.3 | 1271.4 ± 1.8 | 0.5463 ± 0.0061
303.15 K | 780.3 ± 0.4 | 1252.2 ± 1.8 | 0.5255 ± 0.006
308.15 K | 775.9 ± 0.4 | 1233.9 ± 1.7 | 0.5049 ± 0.0059

Cc1ccccc1 [toluene] + CCCC#N
[2]
Details | mass density [kg/m3] | speed of sound [m/s] | viscosity [mPa·s]
298.15 K | 860.9 ± 0.3 | 1299.8 ± 1.5 | 0.5635 ± 0.0056
303.15 K | 856 ± 0.3 | 1279.5 ± 1.5 | 0.5344 ± 0.0055
308.15 K | 851.6 ± 0.3 | 1260.7 ± 1.5 | 0.5091 ± 0.0054

Cc1ccccc1 [toluene] + CC#N
[2]
Details | mass density [kg/m3] | speed of sound [m/s] | viscosity [mPa·s]
298.15 K | 860.9 ± 0.3 | 1299.8 ± 1.5 | 0.5635 ± 0.0056
303.15 K | 856 ± 0.3 | 1279.5 ± 1.5 | 0.5344 ± 0.0055
308.15 K | 851.6 ± 0.3 | 1260.7 ± 1.5 | 0.5091 ± 0.0054

Cc1ccccc1 [toluene] + CCC#N
[2]
Details | mass density [kg/m3] | speed of sound [m/s] | viscosity [mPa·s]
298.15 K | 860.9 ± 0.3 | 1299.8 ± 1.5 | 0.5635 ± 0.0056
303.15 K | 856 ± 0.3 | 1279.5 ± 1.5 | 0.5344 ± 0.0055
308.15 K | 851.6 ± 0.3 | 1260.7 ± 1.5 | 0.5091 ± 0.0054

CCC#N [propanenitrile]
[1], 101.33 kPa
Details | mass density [kg/m3] | speed of sound [m/s] | viscosity [mPa·s]
298.15 K | 775.4 ± 0.3 | 1252.4 ± 1.8 | 0.4107 ± 0.0055
303.15 K | 769.9 ± 0.3 | 1232.7 ± 1.7 | 0.3991 ± 0.0054
308.15 K | 765.2 ± 0.4 | 1213.7 ± 1.7 | 0.3822 ± 0.0053
